This note sets out measurements from PMC6470523, “Introduction of Nonacidic Side Chains on 6-Ethylcholane Scaffolds in the Identification of Potent Bile Acid Receptor Agonists with Improved Pharmacokinetic Properties” (Molecules, 2019).

In series [1] the test system is pro-glucagon mRNA in GLUTag cells. Kind of series: RT-PCR of GPBAR1 target gene pro-glucagon mRNA in GLUTag cells. The class given is cell-based, murine. The settings on record: 1 and 10 µM, 18 h, Figure 2A. The protocol: HepG2 and GLUTag cells were plated at 1 × 10^6 cells/well in a six well plate. […] Total RNA was isolated from cells using the TRIzol reagent according to the manufacturer's specifications (Invitrogen, Carlsbad, CA, USA). One microgram of purified RNA was treated with DNase-I and reverse transcribed with Superscript II (Invitrogen, Carlsbad, CA, USA). For Real Time PCR, 10 ng template was dissolved in 25 μL containing 200 nmol/L of each primer and 12.5 μL of 2× SYBR FAST Universal ready mix (Invitrogen, Carlsbad, CA, USA). All reactions were performed in triplicate, and the thermal cycling conditions were as follows: 2 min at 95 °C, followed by 40 cycles of 95 °C for 20 s and 60 °C for 30 s in StepOnePlus (Applied Biosystems, Foster City, CA, USA). The relative mRNA expression was calculated accordingly to the Ct method. Primers were designed using the software PRIMER31 using published data obtained from the NCBI database. Forward and reverse primer sequences were the following: human GAPDH, [NT]; human SHP, [NT]; mouse GAPDH, [NT]; mouse pro-glucagon, [NT]

Series [2] can be described thus: Liver microsomal stability. The format is in vitro ADME, mouse. The settings on record: liver microsomes. On the procedure:
Chromatography was performed using an Alliance pump system coupled to a Q-ToF Premiere (Waters Co., Milford, MA, USA). The mixture was separated on a Luna 5 µm C8(2) 100° A 150 × 2 mm from Phenomenex. The mobile phase consisted of 0.2% formic acid (FA) in water as solvent A and 0.2% FA in acetonitrile as solvent B at a flow rate of 200 μL/min. The gradient was as follows: 0–2 min (70% A and 30% B), 2–20 min (5% A and 95% B), 20–30 min (70% A and 30% B). The detection of analytes was achieved by electrospray ionization (ESI) in the positive mode with the appropriate MS/MS transitions, if necessary.
Male mouse (CD-1) liver microsomes (Sigma-Aldrich, St. Louis, MO, USA) were used. All incubations were performed in duplicate in a shaking water bath at 37 °C. The incubation mixtures contained 1 μM compound with 1% DMSO used as a vehicle, mouse liver microsomes (0.3 mg of microsomal protein per mL), 5 mM MgCl2, 1 mM NADP, 5 mM glucose 6-phosphate, 0.4 U·mL^−1 glucose 6-phosphate dehydrogenase, and 50 mM potassium phosphate buffer (pH 7.4) in a final volume of 0.5 mL. Aliquots were removed at 0, 5, 10, 20, 30, and 40 min after microsome addition and the reaction was stopped by adding 200 μL of ice-cold acetonitrile. After two hours, the samples were centrifuged for 10 min at 10,000 rpm, and the supernatants were transferred in matrix tubes for LC-MS/MS analysis. LC-MS/MS analysis were carried out setting the m/z window around the value of the MH^+ of the unmodified compounds.
Propranolol, known as a high hepatic clearance drug in rodents, was used as a quality-control compound for the microsomal incubations. The slope of the linear regression of the curve obtained reporting the natural logarithm of compound area versus incubation time (−k) was used in the conversion to in vitro t1/2 values by t1/2 = −ln(2)/k. In vitro intrinsic clearance (Clint expressed as μL/min/mg) was calculated according to the following formula: Clint = volume of reaction (µL)/t1/2(min)/protein of liver microsomes (mg). The percentage of unmodified compound has been calculated assuming the area of the compound peak at time 0 min as 100%.
Background: Microsomes from liver hold many membrane-bound enzymes, among them those of drug oxidation.

For orientation: microsomal CLint means a measure of how fast metabolising enzymes remove a compound, apart from limits set by blood flow. A low value points to greater metabolic stability. As for `CCC1C(O)C2C3CCC(C(C)CO)C3(C)CCC2C2(C)CCCCC12` (stereo not drawn) [compound 6, 6α-Ethyl-7α-hydroxy-23,24-dinor-5β-cholan-22-ol], the “pro-glucagon mRNA expression (in words)” value in series [1] is “failed to regulate”. Besides, in series [2] (40 min incubation), the “Percentage of compound remaining in solution after 40 min incubation” value worked out at 79.2%. The microsomal CLint at 1 µM in series [2] (male, CD-1, mouse, pH 7.4, 1 μM compound, 37 °C) was 19.7 µL/min/mg. Also, the half-life at 1 µM in series [2] (male, CD-1, mouse, pH 7.4, 1 μM compound, 37 °C, read-out: t½) came out at 1.96 h.
